Reference: US20240285557A1, “PHARMACEUTICAL COMPOSITION COMPRISING LIPASE INHIBITOR FOR TREATMENT OR TREATMENT OF RNA VIRAL INFECTIONS” (priority 2021, published 2024)
Where two headings read alike, the source gives them in different places.

How the values were obtained:
MARC cells [1] = tested on: MARC cells
Protocol: (§1) To determine the half-maximal cytotoxic concentration (CC50) of the lipase inhibitors atglistatin and CAY10499, Vero E6, A549, HRT-18G, MA104, MARC-145, and LLC-PK cells were prepared in monolayers in 96-well plates.
(§2) The cells were treated with the drugs for 24 hours, and the culture media was removed before addition of 200 μL of 3-(4,5-dimethylthiazol-2-yl)-2,5-diphenyl tetrazolium bromide (MTT) solution to each well. The plates were then incubated for 4 hours in a 5% CO2 incubator at 36° C. Subsequently, 150 μL of DMSO solution was added to each well and incubated at 20° C. The optical density (OD) was measured at 570 nm wavelength using an enzyme-linked immunosorbent assay (ELISA) reader.

Vero E6 cells [2] = tested on: Vero E6 cells
Protocol: as §1, §2

[3] = tested on: A549, Vero E6, MDCK, HRT18G, MA04, MARC, and LLC-PK cells
Protocol: as §1, §2

[4] = MTT half-maximal cytotoxic concentration (CC50); conditions: African green monkey
Protocol: as §1, §2

[5] = MTT half-maximal cytotoxic concentration (CC50); conditions: African green monkey; remark: listed apart in the source
Protocol: as §1, §2

A549 cells = assay: MTT half-maximal cytotoxic concentration (CC50); conditions: drugs for 24 hours
Protocol: as §1, §2

MARC cells [6] = assay: MTT half-maximal cytotoxic concentration (CC50); conditions: MARC; drugs for 24 hours, MTT
Protocol: as §1, §2

HRT18G cells = assay: MTT half-maximal cytotoxic concentration (CC50); conditions: drugs for 24 hours
Protocol: as §1, §2

LLC-PK cells = assay: MTT half-maximal cytotoxic concentration (CC50); conditions: LLC-PK; drugs for 24 hours, MTT
Protocol: as §1, §2

Vero E6 cells [7] = assay: MTT half-maximal cytotoxic concentration (CC50); conditions: Vero E6; drugs for 24 hours, MTT
Protocol: as §1, §2

Protocol for MA104 cells: as §1, §2

In the case of `COc1nn(-c2ccc(NC(=O)OCc3ccccc3)c(C)c2)c(=O)o1` [CAY10499], the CC50 (MDCK cells) is reported as 110 µM, the CC50 (MARC cells [1]) is reported as 101 µM and the CC50 (MA104 cells) is reported as 107 µM. The CC50 (Vero E6 cells [2]) was 102 µM and the CC50 [3] was 101 to 110 µM.
With `CCN(C)C(=O)Nc1cccc(-c2ccc(N(C)C)cc2)c1` [DABPU-EM, 3-(4′-(dimethylamino)-(1,1′-biphenyl)-3-yl)-1-ethyl-1-methylurea] the CC50 at 24 h [4] was 210 µM and the CC50 at 24 h [5] was 210 µM.
In the case of `CCN(CC)C(=O)Nc1cccc(-c2ccc(N(C)C)cc2)c1` [DABPU-DE], the CC50 (A549 cells) is reported as 213 µM, the CC50 (MARC cells [6]) is reported as 216 µM and the CC50 (HRT18G cells) is reported as 177 µM. It also gave a CC50 (LLC-PK cells) of 226 µM and a CC50 (Vero E6 cells [7]) of 222 µM.
